Measurements reported in PubChem BioAssay AID248 (DTP/NCI, 2004).
Where “and” joins values, the source holds several entries; their conditions need not be identical. Equal values may be shown once. Toxic doses and inconclusive results are not listed. No stated cut-off is given here; in the data, active means T/C of 150% or more; inactive means T/C below 125%.

System: L1210 leukemia ip in BDF1 mice, survival T/C
Experiment: NCI In Vivo Anticancer Drug Screen. Data for tumor model L1210 Leukemia (intraperitoneal) in B6D2F1 (BDF1) mice
Settings: endpoint: mean survival time, higher = longer survival
Summary of the method: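 Transplantable tumor model; survival measured in treated vs vehicle control mice. Value = treated/control.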

[1] = dose: 100.0 mg/kg/injection, schedule: Q01DX009 (ip), vehicle: Klucel (hydroxypropylcellulose) (HPC)
[2] = dose: 200.0 mg/kg/injection, schedule: Q01DX009 (ip), vehicle: Klucel (hydroxypropylcellulose) (HPC)
[3] = dose: 400.0 mg/kg/injection, schedule: Q01DX009 (ip), vehicle: Klucel (hydroxypropylcellulose) (HPC)
[4] = dose: 25.0 mg/kg/injection, schedule: Q01DX009 (ip), vehicle: saline
[5] = dose: 50.0 mg/kg/injection, schedule: Q01DX009 (ip), vehicle: saline
[6] = dose: 100.0 mg/kg/injection, schedule: Q01DX009 (ip), vehicle: saline
[7] = dose: 50.0 mg/kg/injection, schedule: Q01DX009 (ip), vehicle: saline with Tween-80
[8] = dose: 100.0 mg/kg/injection, schedule: Q01DX009 (ip), vehicle: saline with Tween-80
[9] = dose: 200.0 mg/kg/injection, schedule: Q01DX009 (ip), vehicle: saline with Tween-80
[10] = dose: 100.0 mg/kg/injection, schedule: Q04DX003 (ip), vehicle: saline with Tween-80
[11] = dose: 200.0 mg/kg/injection, schedule: Q04DX003 (ip), vehicle: saline with Tween-80
[12] = dose: 400.0 mg/kg/injection, schedule: Q04DX003 (ip), vehicle: saline with Tween-80

Measured: T/C

CC[N+](CC)(CC)CCC[N+](CC)(CC)CC
inactive: dose: 30.0 mg/kg/injection, schedule: Q01DX009 (ip), vehicle: water 98 % of control | dose: 50.0 mg/kg/injection, schedule: Q01DX009 (ip), vehicle: water 95 % of control and 96 % of control | dose: 80.0 mg/kg/injection, schedule: Q01DX009 (ip), vehicle: water 98 % of control | dose: 100.0 mg/kg/injection, schedule: Q04DX003 (ip), vehicle: water 103 % of control | dose: 200.0 mg/kg/injection, schedule: Q04DX003 (ip), vehicle: water 99 % of control

O=C(CNC(=O)Nc1ccc(Cl)c(Cl)c1)NNC(=O)Nc1ccc(Cl)c([N+](=O)[O-])c1
inactive: [1] 97 % of control | [2] 97 % of control | [3] 93 % of control

O=C(O)Cc1ccc2ccccc2c1Br
inactive: dose: 100.0 mg/kg/injection, schedule: Q04DX003 (ip), vehicle: saline 97 % of control | dose: 200.0 mg/kg/injection, schedule: Q04DX003 (ip), vehicle: saline 95 % of control | dose: 400.0 mg/kg/injection, schedule: Q04DX003 (ip), vehicle: saline 90 % of control

Cc1c(-c2ccccc2)cc(O)cc1-c1ccccc1
inactive: [4] 98 % of control | [5] 98 % of control | [6] 105 % of control | dose: 200.0 mg/kg/injection, schedule: Q01DX009 (ip), vehicle: saline 100 % of control

CCOC(=O)C(CC)(OC(C)=O)C(=O)CBr (centres undefined)
inactive: dose: 75.0 mg/kg/injection, schedule: Q01DX001 (ip), vehicle: acetone 87 % of control

[N-]=[N+]=NCC1OCOC1C1OCOC1CN=[N+]=[N-] (centres undefined)
inactive: [4] 96 % of control | [5] 98 % of control | [6] 102 % of control

Cc1ccc(C(C)C)c(OC(=O)NCCCCCCNC(=O)Oc2cc(C)ccc2C(C)C)c1
inactive: [1] 93 % of control | [2] 94 % of control | [3] 98 % of control

O=C(N/N=C\C=C\c1ccccc1)c1ccc(Cl)cc1
inactive: [7] 93 % of control | [8] 89 % of control | [9] 86 % of control

O=P1(O)[O][Sn]([c]2ccccc2)([c]2ccccc2)[O]1
inactive: dose: 6.25 mg/kg/injection, schedule: Q01DX009 (ip), vehicle: saline with Tween-80 97 % of control | dose: 12.5 mg/kg/injection, schedule: Q01DX009 (ip), vehicle: saline with Tween-80 97 % of control

NC1CCc2ccccc2-c2ccccc21 (centres undefined)
inactive: dose: 10.0 mg/kg/injection, schedule: Q01DX001 (ip), vehicle: saline 101 % of control | dose: 20.0 mg/kg/injection, schedule: Q01DX001 (ip), vehicle: saline 108 % of control | dose: 40.0 mg/kg/injection, schedule: Q01DX001 (ip), vehicle: saline 101 % of control

CCC1CN2CCc3cc(OC)c(OC)cc3C2CC1CC1c2cc(OC)c(OC)cc2CCN1C(=O)C(Cc1c[nH]c2ccccc12)NC(=O)OC(C)(C)C (centres undefined)
inactive: dose: 4.0 mg/kg/injection, schedule: Q03HX008 (ip), vehicle: saline with Tween-80 100 % of control | dose: 4.0 mg/kg/injection, schedule: Q03HX016 (ip), vehicle: saline with Tween-80 93 % of control | dose: 4.0 mg/kg/injection, schedule: Q03HX024 (ip), vehicle: saline with Tween-80 101 % of control | dose: 8.0 mg/kg/injection, schedule: Q03HX008 (ip), vehicle: saline with Tween-80 105 % of control | dose: 8.0 mg/kg/injection, schedule: Q03HX016 (ip), vehicle: saline with Tween-80 101 % of control | dose: 8.0 mg/kg/injection, schedule: Q03HX024 (ip), vehicle: saline with Tween-80 98 % of control | dose: 16.0 mg/kg/injection, schedule: Q01DX009 (oral), vehicle: saline with Tween-80 112 % of control | dose: 16.0 mg/kg/injection, schedule: Q03HX008 (ip), vehicle: saline with Tween-80 101 % of control | dose: 16.0 mg/kg/injection, schedule: Q03HX016 (ip), vehicle: saline with Tween-80 100 % of control | dose: 16.0 mg/kg/injection, schedule: Q03HX024 (ip), vehicle: saline with Tween-80 97 % of control | dose: 32.0 mg/kg/injection, schedule: Q01DX005 (ip), vehicle: saline with Tween-80 95 % of control | dose: 32.0 mg/kg/injection, schedule: Q01DX009 (ip), vehicle: saline with Tween-80 104 % of control | dose: 32.0 mg/kg/injection, schedule: Q01DX009 (oral), vehicle: saline with Tween-80 114 % of control | dose: 32.0 mg/kg/injection, schedule: Q03HX008 (ip), vehicle: saline with Tween-80 92 % of control | dose: 32.0 mg/kg/injection, schedule: Q03HX016 (ip), vehicle: saline with Tween-80 97 % of control | dose: 32.0 mg/kg/injection, schedule: Q03HX024 (ip), vehicle: saline with Tween-80 98 % of control | dose: 37.5 mg/kg/injection, schedule: Q01DX009 (ip), vehicle: saline 95 % of control | dose: 64.0 mg/kg/injection, schedule: Q01DX001 (ip), vehicle: saline with Tween-80 100 % of control | dose: 64.0 mg/kg/injection, schedule: Q01DX005 (ip), vehicle: saline with Tween-80 102 % of control | dose: 64.0 mg/kg/injection, schedule: Q01DX009 (ip), vehicle: saline with Tween-80 100 % of control | dose: 64.0 mg/kg/injection, schedule: Q01DX009 (oral), vehicle: saline with Tween-80 114 % of control | dose: 64.0 mg/kg/injection, schedule: Q04DX003 (ip), vehicle: saline with Tween-80 97 % of control | dose: 64.0 mg/kg/injection, schedule: Q08DX002 (ip), vehicle: saline with Tween-80 98 % of control | dose: 75.0 mg/kg/injection, schedule: Q01DX009 (ip), vehicle: saline 103 % of control | dose: 89.0 mg/kg/injection, schedule: Q01DX001 (ip), vehicle: saline 115 % of control | dose: 128.0 mg/kg/injection, schedule: Q01DX001 (ip), vehicle: saline with Tween-80 102 % of control | dose: 128.0 mg/kg/injection, schedule: Q01DX005 (ip), vehicle: saline with Tween-80 101 % of control | dose: 128.0 mg/kg/injection, schedule: Q01DX009 (ip), vehicle: saline with Tween-80 105 % of control | dose: 128.0 mg/kg/injection, schedule: Q04DX003 (ip), vehicle: saline with Tween-80 105 % of control | dose: 128.0 mg/kg/injection, schedule: Q08DX002 (ip), vehicle: saline with Tween-80 95 % of control | dose: 256.0 mg/kg/injection, schedule: Q01DX001 (ip), vehicle: saline with Tween-80 97 % of control | dose: 256.0 mg/kg/injection, schedule: Q01DX009 (oral), vehicle: saline with Tween-80 118 % of control | dose: 256.0 mg/kg/injection, schedule: Q04DX003 (ip), vehicle: saline with Tween-80 96 % of control | dose: 256.0 mg/kg/injection, schedule: Q08DX002 (ip), vehicle: saline with Tween-80 98 % of control | dose: 300.0 mg/kg/injection, schedule: Q01DX009 (ip), vehicle: saline 90 % of control | dose: 512.0 mg/kg/injection, schedule: Q01DX001 (ip), vehicle: saline with Tween-80 102 % of control | dose: 512.0 mg/kg/injection, schedule: Q08DX002 (ip), vehicle: saline with Tween-80 106 % of control
active: dose: 32.0 mg/kg/injection, schedule: Q04DX003 (ip), vehicle: saline with Tween-80 162 % of control

CC(=O)c1ccccc1[N+](=O)[O-]
inactive: [10] 107 % of control | [11] 96 % of control | [12] 94 % of control

CCCCCCCCC1CCC2C3CCC4CC(C(=O)O)C(C(=O)O)CC4(C)C3CCC12C (centres undefined)
inactive: dose: 100.0 mg/kg/injection, schedule: Q01DX001 (ip), vehicle: saline with Tween-80 86 % of control | dose: 200.0 mg/kg/injection, schedule: Q01DX001 (ip), vehicle: saline with Tween-80 87 % of control

O=C(CC(O)(C(F)(F)F)C(F)(F)F)c1ccccc1Cl
inactive: [10] 97 % of control | [11] 101 % of control | [12] 101 % of control

ClCCCCOCBr
inactive: [7] 97 % of control | [8] 104 % of control | [9] 95 % of control

CCCC1(CC)C(=O)NC(=S)N(C)C1=O (centres undefined)
inactive: dose: 75.0 mg/kg/injection, schedule: Q01DX001 (ip), vehicle: carboxymethylcellulose (CMC) 95 % of control | dose: 75.0 mg/kg/injection, schedule: Q01DX001 (ip), vehicle: other 94 % of control | dose: 150.0 mg/kg/injection, schedule: Q01DX001 (ip), vehicle: carboxymethylcellulose (CMC) 98 % of control | dose: 150.0 mg/kg/injection, schedule: Q01DX001 (ip), vehicle: other 111 % of control | dose: 300.0 mg/kg/injection, schedule: Q01DX001 (ip), vehicle: carboxymethylcellulose (CMC) 104 % of control
